Assay type in all cases: biochemical
Holding throughout (conditions): for Ki: inhibitor concentration that yields half the maximal rate of inactivation; for kinact: maximal rate of inactivation

One test has as its target T1, MAO A (Homo sapiens, UniProt P21397).
T1 sequence (P21397 1-527): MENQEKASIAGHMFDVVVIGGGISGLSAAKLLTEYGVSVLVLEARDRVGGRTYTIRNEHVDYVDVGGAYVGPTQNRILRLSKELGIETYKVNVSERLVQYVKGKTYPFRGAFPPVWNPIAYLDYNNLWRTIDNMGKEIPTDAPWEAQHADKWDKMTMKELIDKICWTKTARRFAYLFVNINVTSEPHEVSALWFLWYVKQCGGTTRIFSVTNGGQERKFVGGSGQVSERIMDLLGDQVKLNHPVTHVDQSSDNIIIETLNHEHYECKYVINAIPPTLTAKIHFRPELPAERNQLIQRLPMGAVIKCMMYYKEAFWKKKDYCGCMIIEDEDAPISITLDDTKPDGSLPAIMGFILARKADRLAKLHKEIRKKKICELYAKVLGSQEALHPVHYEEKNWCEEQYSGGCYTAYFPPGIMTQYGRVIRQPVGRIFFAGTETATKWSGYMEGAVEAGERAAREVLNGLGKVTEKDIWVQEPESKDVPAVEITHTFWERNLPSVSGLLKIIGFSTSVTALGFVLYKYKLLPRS
Nature of the test: HRP-coupled amine oxidase assay, time-dependent inactivation of MAO A. As to the method:
(§1) For example, in vitro enzymatic assays may be performed in which hydrogen peroxide generated from reoxidation of the FAD cofactor by molecular oxygen by LSD1 or MAOs is monitored, e.g., using a horseradish peroxidase (HRP) coupled assay. The enzyme may be incubated with an appropriate peptide substrate that includes a dimethylated lysine residue, as well as an arylcyclopropylamine compound of the invention. A fluorogenic substrate may be included in the reaction, which upon reaction with H2O2 produced by the enzyme produces a fluorescent substrate that may be detected. Inhibition kinetics may then be determined by appropriate fitting of the data.
(§2) The peroxide production generated from reoxidation of the FAD cofactor by molecular oxygen by LSD1 or MAOs was monitored using a horseradish peroxidase (HRP) coupled assay (FIG. 1). Amplex red was used as the fluorogenic electron acceptor and the fluorescence (excitation 560 nm, emission 590 nm) was measured using a Molecular Devices Spectra Max Gemini EM plate reader. The inhibition kinetics were determined by fitting the progress curves to eq. 1 describing time-dependent inactivation to determine kobs:
(§3) product=(vi/kobs)(1−e^−k^obs^t) (1)
(§4) where vi is the initial rate prior to inactivation, t is time and kobs is the observed rate of inactivation. The resulting values were plotted as a function of inhibitor concentration to obtain values of Ki and kinact according to eq. 2.
(§5) where kinact is the maximal rate of inactivation and Ki is the inhibitor concentration that yields half that rate of inactivation.

Another test has as its target LSD1 (Homo sapiens, UniProt O60341). Description: HRP-coupled amine oxidase assay, time-dependent inactivation of LSD1. The method, then: as §1
The C-terminal GYG was added to allow for quantification of the peptide concentration.
as §2, §3, §4, §5

The target in another test is T2, MAO B (Homo sapiens, UniProt P27338).
T2 sequence (P27338 1-520): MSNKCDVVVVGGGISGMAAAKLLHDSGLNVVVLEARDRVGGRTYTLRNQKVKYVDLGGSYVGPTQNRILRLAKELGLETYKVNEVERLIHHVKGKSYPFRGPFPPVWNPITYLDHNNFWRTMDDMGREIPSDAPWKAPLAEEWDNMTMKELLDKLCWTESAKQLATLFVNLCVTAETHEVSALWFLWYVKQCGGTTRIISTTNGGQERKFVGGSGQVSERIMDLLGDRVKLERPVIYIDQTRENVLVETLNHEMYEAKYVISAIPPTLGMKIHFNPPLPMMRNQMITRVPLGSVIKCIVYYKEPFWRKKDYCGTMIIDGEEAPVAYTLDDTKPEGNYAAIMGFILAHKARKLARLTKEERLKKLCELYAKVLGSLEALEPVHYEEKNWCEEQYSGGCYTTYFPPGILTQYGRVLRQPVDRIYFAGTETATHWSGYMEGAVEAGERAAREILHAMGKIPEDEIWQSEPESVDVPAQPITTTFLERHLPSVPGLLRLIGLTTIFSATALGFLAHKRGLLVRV
Nature of the test: HRP-coupled amine oxidase assay, time-dependent inactivation of MAO B. As to the method: as §1, §2, §3, §4, §5

Our source for the kinact/KI, Ki and kinact values is US20100324147A1, “ARYLCYCLOPROPYLAMINES AND METHODS OF USE” (priority 2009, published 2010).

SMILES strings stand for the structures.

As to `CCOc1ccc(C2CC2N)cc1` (stereo not shown) [compound 1], the second-order inactivation constant (kinact/KI) on MAO A was determined as 3140 M⁻¹ s⁻¹; at LSD1, 45 M⁻¹ s⁻¹; on MAO B, 762 M⁻¹ s⁻¹. The Ki on MAO A came to 4.3 ± 0.8 µM; on LSD1, 456 ± 86 µM; at MAO B it was 63 ± 10 µM. Also, the kinact on MAO A is 0.0135 ± 0.0004 s⁻¹; on LSD1, 0.0204 ± 0.0018 s⁻¹; on MAO B, 0.048 ± 0.004 s⁻¹.
As to `CC(C)Oc1ccc(C2CC2N)cc1` (stereo not shown) [compound 2], on MAO A, the second-order inactivation constant (kinact/KI) is 1320 M⁻¹ s⁻¹, the Ki came to 19.7 ± 4.6 µM and the kinact was 0.026 ± 0.002 s⁻¹. In addition, at LSD1, the second-order inactivation constant (kinact/KI) is 54 M⁻¹ s⁻¹, the Ki was 352 ± 76 µM and the kinact was determined as 0.0192 ± 0.0017 s⁻¹. Besides, on MAO B, the kinact/KI was 383 M⁻¹ s⁻¹, the Ki is 106 ± 20 µM and the inactivation rate constant (kinact) is 0.046 ± 0.006 s⁻¹.
As for `NC1CC1c1ccc(Oc2ccccc2)cc1` (stereo not shown) [compound 3], on MAO A, the kinact/KI was determined as 5720 M⁻¹ s⁻¹, the Ki was found to be 12.4 ± 4.3 µM and the maximal inactivation rate constant (kinact) came out at 0.071 ± 0.007 s⁻¹. Further, on MAO B, the kinact/KI is 1100 M⁻¹ s⁻¹, the Ki is 29.5 ± 4.4 µM and the maximal inactivation rate constant (kinact) came out at 0.0623 ± 0.0018 s⁻¹.
Take `NC1CC1c1cccc(OCc2ccccc2)c1` (stereo not shown) [compound 4]: at LSD1, the kinact/KI amounted to 33 M⁻¹ s⁻¹ and the Ki was 760 ± 280 µM.
On to `CC(C)(C)c1ccc(Sc2ccc(C3CC3N)cc2)cc1` (stereo not shown) [compound 5], for which, on LSD1, the second-order inactivation constant (kinact/KI) was 40 M⁻¹ s⁻¹ and the kinact is 0.0215 ± 0.003 s⁻¹.
